Holding throughout (format): cell-based
The subject of test [1] is HCC827-ASV cells (human EGFR exon 20 insertion mutant A769_D770insASV). The test can be described thus: Cell growth inhibition (CellTiter-Glo, 3 days) in HCC827-ASV. To be noted: 72 h, 3 days after administration. A digest of the protocol: (§1)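 HCC827 cells lentivirally transduced with codon-optimized ASV or YVMA insertion mutants were seeded at 5000 cells/well in RPMI with 10% FBS and incubated overnight. Compound was added at various concentrations from a 10× stock in medium, with 3 days' incubation. Viability read by CellTiter-Glo luminescence.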
A general note: In ATP-based viability assays light output follows the ATP content of the culture.

A further test relates to A431 cells. As to the kind of experiment: Cell growth inhibition (CellTiter-Glo, 3 days) in A431. The settings on record: Homo sapiens, A-431, 72 h, 3 days after administration. A digest of the protocol: (§2)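 HCC827 cells were plated at 5000 cells/well in RPMI with 10% FBS, and A431 cells at the same density in DMEM with 10% FBS. After overnight attachment, compounds were added at various concentrations. Luminescence was recorded after plates were equilibrated to room temperature and incubated 10 min with reagent.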

The test system of a further test is HCC827 cells. The test can be described thus: Cell growth inhibition (CellTiter-Glo, 3 days) in HCC827. To be noted: Homo sapiens, 72 h, 3 days after administration. A digest of the protocol: as §2
The test system of test [2] is HCC827-YVMA cells (human ERBB2 exon20 insertion mutant A775_G776ins YVMA). As to the kind of experiment: Cell growth inhibition (CellTiter-Glo, 3 days) in HCC827-YVMA. To be noted: 72 h, 3 days after administration. In short, it runs like this:
as §1

The test system of test [3] is HCC827-SVD cells (human EGFR exon 20 insertion mutant D770_N771 insSVD). The test can be described thus: Cell growth inhibition (CellTiter-Glo, 3 days) in HCC827-SVD. To be noted: 72 h, 3 days after administration. A digest of the protocol: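 HCC827 cells carrying lentiviral codon-optimized EGFR D770_N771 insSVD, with endogenous EGFR knocked out by CRISPR (single clone), seeded at 5000 cells/well in RPMI with 10% FBS. Viability read by CellTiter-Glo luminescence.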

The structures appear in SMILES notation.

In general, GI50 refers to the concentration at which growth is held to half of that of the control. Higher therefore signals less potent growth inhibition.

As to `C=CC(=O)N1CCC(Nc2cc3c(Nc4ccc(Oc5ccnc(N6C[C@H](C)C[C@H](C)C6)c5)cc4F)ncnc3cc2OC)CC1` [Example 158, 1-(4-((4-((4-((2-((3S,5R)-3,5-dimethylpiperidin-1-yl)pyridin-4-yl)oxy)-2-fluorophenyl)amino)-7-methoxyquinazolin-6-yl)amino)piperidin-1-yl)prop-2-en-1-one], the GI50 in test [1] was 0.1 to 0.3 µM; in the test on A431 cells, no less than 1 µM; in the test with HCC827 cells, 0.6 to 1 µM; in test [2], 0.3 to 0.6 µM; in test [3], 0.06 to 0.1 µM.

`C=CC(=O)N1CCC(Nc2cc3c(Nc4ccc(Oc5ccn(-c6cnc(C)c(C)c6)n5)cc4F)ncnc3cc2OC)CC1` [Example 36, 1-(4-((4-((4-((1-(5,6-dimethylpyridin-3-yl)-1H-pyrazol-3-yl)oxy)-2-fluorophenyl)amino)-7-methoxyquinazolin-6-yl)amino)piperidin-1-yl)prop-2-en-1-one]: the GI50 in test [1] is 0.06 to 0.1 µM; in the test with A431 cells, 0.03 to 0.06 µM; in the test with HCC827 cells it was 0.06 to 0.1 µM; in test [2], 0.06 to 0.1 µM; in test [3] it was 0.03 to 0.06 µM.

`COc1cc2ncnc(Nc3ccc(Oc4ccn(-c5cnc(C)c(F)c5)n4)cc3F)c2cc1NC1CCN(C(=O)/C=C/CN(C)C)CC1` [Compound 21, (2E)-4-(dimethylamino)-1-[4-({4-[(2-fluoro-4-{[1-(5-fluoro-6-methylpyridin-3-yl)pyrazol-3-yl]oxy}phenyl)amino]-7-methoxyquinazolin-6-yl}amino)piperidin-1-yl]but-2-en-1-one]: the GI50 in test [1] is no less than 1 µM; in the test with A431 cells it was no less than 1 µM; in the test on HCC827 cells, no less than 1 µM; in test [2], 0.3 to 0.6 µM; in test [3], no less than 1 µM.

Consider `C=CC(=O)N1CCC(Nc2cc3c(Nc4ccc(Oc5ccnc(N6CCC(N(C)C)CC6)c5)cc4F)ncnc3cc2OC)CC1` [Example 122, 1-(4-((4-((4-((2-(4-(dimethylamino)piperidin-1-yl)pyridin-4-yl)oxy)-2-fluorophenyl)amino)-7-methoxyquinazolin-6-yl)amino)piperidin-1-yl)prop-2-en-1-one], for which the GI50 in test [1] was 0.6 to 1 µM; with A431 cells, no less than 1 µM; in the test on HCC827 cells it was 0.6 to 1 µM; in test [2] it was no less than 1 µM; in test [3] it was 0.6 to 1 µM.

For `C=CC(=O)N1CCC(Nc2cc3c(Nc4ccc(Oc5ccn(-c6ccc(C)nn6)n5)cc4F)ncnc3cc2OC)CC1` [Example 29, 1-(4-((4-((2-fluoro-4-((1-(6-methylpyridazin-3-yl)-1H-pyrazol-3-yl)oxy)phenyl)amino)-7-methoxyquinazolin-6-yl)amino)piperidin-1-yl)prop-2-en-1-one], the GI50 in test [1] was less than 0.03 µM; in the test with A431 cells, no less than 1 µM; in the test with HCC827 cells, less than 0.03 µM; in test [2], less than 0.03 µM; in test [3], less than 0.03 µM.

Turning to `C=CC(=O)N1CCC(Nc2cc3c(Nc4ccc(Oc5ccnc(N6C[C@H](OC)[C@@H](OC)C6)c5)cc4F)ncnc3cc2OC)CC1` [Example 256, 1-(4-((4-((4-((2-((3S,4S)-3,4-dimethoxypyrrolidin-1-yl)pyridin-4-yl)oxy)-2-fluorophenyl)amino)-7-methoxyquinazolin-6-yl)amino)piperidin-1-yl)prop-2-en-1-one], the GI50 in test [1] is less than 0.03 µM; with A431 cells, 0.1 to 0.3 µM; in the test with HCC827 cells, 0.06 to 0.1 µM; in test [2], less than 0.03 µM; in test [3], less than 0.03 µM.

For the compound `C=CC(=O)N1CCC(Nc2cc3c(Nc4ccc(Oc5ccnc(N6CCC(C)(O)CC6)c5)cc4F)ncnc3cc2OC)CC1` [Example 128, 1-(4-((4-((2-fluoro-4-((2-(4-hydroxy-4-methylpiperidin-1-yl)pyridin-4-yl)oxy)phenyl)amino)-7-methoxyquinazolin-6-yl)amino)piperidin-1-yl)prop-2-en-1-one], the GI50 was 0.1 to 0.3 µM in test [1]; no less than 1 µM in the test on A431 cells; 0.3 to 0.6 µM with HCC827 cells; 0.1 to 0.3 µM in test [2]; 0.06 to 0.1 µM in test [3].

For the compound `C=CC(=O)N1CCC(Nc2cc3c(Nc4ccc(Oc5ccnc(-c6cnn(C)c6)c5)cc4F)ncnc3cc2OC)CC1` [Compound 34, 1-(4-((4-((2-fluoro-4-((2-(1-methyl-1H-pyrazol-4-yl)pyridin-4-yl)oxy)phenyl)amino)-7-methoxyquinazolin-6-yl)amino)piperidin-1-yl)prop-2-en-1-one], the GI50 in test [1] is 0.06 to 0.1 µM; in the test on A431 cells it was no less than 1 µM; in the test with HCC827 cells it was 0.6 to 1 µM; in test [2], 0.06 to 0.1 µM; in test [3], 0.03 to 0.06 µM.

With `C=CC(=O)N1CCC(Nc2cc3c(Nc4ccc(Oc5ccnc(N6CC(C(F)(F)F)C6)c5)cc4F)ncnc3cc2OC)CC1` [Example 161, 1-(4-((4-((2-fluoro-4-((2-(3-(trifluoromethyl)azetidin-1-yl)pyridin-4-yl)oxy)phenyl)amino)-7-methoxyquinazolin-6-yl)amino)piperidin-1-yl)prop-2-en-1-one], the GI50 in test [1] is less than 0.03 µM; in the test on A431 cells it was 0.3 to 0.6 µM; with HCC827 cells, 0.1 to 0.3 µM; in test [2], less than 0.03 µM; in test [3], less than 0.03 µM.

As to `C=CC(=O)N1CCC(Nc2cc3c(Nc4ccc(Oc5ccnc(N6CCC[C@@H](OC)C6)c5)c(Cl)c4)ncnc3cc2OC)CC1` [Example 227, (R)-1-(4-((4-((3-chloro-4-((2-(3-methoxypiperidin-1-yl)pyridin-4-yl)oxy)phenyl)amino)-7-methoxyquinazolin-6-yl)amino)piperidin-1-yl)prop-2-en-1-one], the GI50 in test [1] was 0.06 to 0.1 µM; in the test on A431 cells, 0.3 to 0.6 µM; in the test on HCC827 cells, 0.1 to 0.3 µM; in test [2] it was 0.06 to 0.1 µM; in test [3], 0.03 to 0.06 µM.

`C=CC(=O)N1CCC(Nc2cc3c(Nc4ccc(Oc5ccnc(C6CCN(C)CC6)c5)cc4F)ncnc3cc2OC)CC1` [Example 186, 1-(4-((4-((2-fluoro-4-((2-(1-methylpiperidin-4-yl)pyridin-4-yl)oxy)phenyl)amino)-7-methoxyquinazolin-6-yl)amino)piperidin-1-yl)prop-2-en-1-one]: the GI50 in test [1] was no less than 1 µM; in the test with A431 cells, no less than 1 µM; in the test with HCC827 cells, 0.6 to 1 µM; in test [2], no less than 1 µM; in test [3], no less than 1 µM.

Consider `C=CC(=O)N1CCC(Nc2cc3c(Nc4ccc(Oc5ccnc(N6CCC[C@@H]6C)c5)cc4F)ncnc3cc2OC)CC1` [Example 252, (S)-1-(4-((4-((2-fluoro-4-((2-(2-methylpyrrolidin-1-yl)pyridin-4-yl)oxy)phenyl)amino)-7-methoxyquinazolin-6-yl)amino)piperidin-1-yl)prop-2-en-1-one], for which the GI50 in test [1] fell in the range of 0.03 to 0.06 µM; with A431 cells it was 0.6 to 1 µM; with HCC827 cells, 0.1 to 0.3 µM; in test [2] it was 0.03 to 0.06 µM; in test [3], 0.03 to 0.06 µM.

Consider `C=CC(=O)N1CCC(Nc2cc3c(Nc4ccc(Oc5ccnc(-c6ccccn6)c5)cc4F)ncnc3cc2OC)CC1` [Example 236, 1-(4-((4-((4-([2,2′-bipyridin]-4-yloxy)-2-fluorophenyl)amino)-7-methoxyquinazolin-6-yl)amino)piperidin-1-yl)prop-2-en-1-one], for which the concentration for 50% growth inhibition (GI50) is less than 0.03 µM in test [1]; no less than 1 µM in the test with A431 cells; 0.1 to 0.3 µM in the test on HCC827 cells; less than 0.03 µM in test [2]; less than 0.03 µM in test [3].

On to `C=CC(=O)N1CCC(Nc2cc3c(Nc4ccc(Oc5nc(-c6cnc(C)c(F)c6)cs5)cc4F)ncnc3cc2OC)CC1` [Example 94, 1-(4-((4-((2-fluoro-4-((4-(5-fluoro-6-methylpyridin-3-yl)thiazol-2-yl)oxy)phenyl)amino)-7-methoxyquinazolin-6-yl)amino)piperidin-1-yl)prop-2-en-1-one], for which the concentration for 50% growth inhibition (GI50) in test [1] was 0.03 to 0.06 µM; in the test with A431 cells it was no less than 1 µM; in the test with HCC827 cells, 0.03 to 0.06 µM; in test [2] it was 0.03 to 0.06 µM; in test [3], 0.1 to 0.3 µM.

For `C=CC(=O)N1CCC(Nc2cc3c(Nc4ccc(Oc5ccnc(NC6CC6)c5)cc4F)ncnc3cc2OC)CC1` [Example 244, 1-(4-((4-((4-((2-(cyclopropylamino)pyridin-4-yl)oxy)-2-fluorophenyl)amino)-7-methoxyquinazolin-6-yl)amino)piperidin-1-yl)prop-2-en-1-one], the GI50 in test [1] is less than 0.03 µM; with A431 cells, 0.06 to 0.1 µM; in the test on HCC827 cells it was less than 0.03 µM; in test [2], less than 0.03 µM; in test [3], less than 0.03 µM.

Take `C=CC(=O)N1CCC(Nc2cc3c(Nc4ccc(Oc5ccnc(N6CCOC[C@@H]6C)c5)cc4F)ncnc3cc2OC)CC1` [Example 135, (S)-1-(4-((4-((2-fluoro-4-((2-(3-methylmorpholino)pyridin-4-yl)oxy)phenyl)amino)-7-methoxyquinazolin-6-yl)amino)piperidin-1-yl)prop-2-en-1-one]: the GI50 was less than 0.03 µM in test [1]; no less than 1 µM in the test on A431 cells; 0.3 to 0.6 µM in the test on HCC827 cells; 0.03 to 0.06 µM in test [2]; 0.06 to 0.1 µM in test [3].
